Data taken from patent publication US20260256870A1, “SKIN COMPOSITION” (Eaderm Co., Ltd., priority 2019, published 2026).
Entries after “also recorded” stand apart in the source; their conditions may differ.

Legend:
[1] = tested on: upper cervical-dorsal skin of aged mice; assay: Irritant skin disorder (dry eczema and alopecia) model induced by 100% ethanol in aged mice; assay type: in vivo; details: continuously applied, aged mice (FIG. 20)
From the text: In the irritant skin disorder (dry eczema and alopecia) model induced by a high concentration of ethanol (100%) in the upper cervical-dorsal skin of aged mice, a substance (apocynin) that promotes the cell competitive ability of epidermal stem cells was continuously applied.

[2] = tested on: full thickness wounds in the skin of rodent tails; assay: Full thickness wound healing in tail skin; assay type: in vivo, mice; details: day 0, day 14, day 21 (FIG. 12)
Description: To test the above hypothesis, the present inventors performed a full-layer wound healing experiment using the tail skin of aged wild-type mice. […] Forced expression of hCOL17A1 by basal layer keratinocytes in mice also promoted wound healing (FIG. 12). […] To confirm the beneficial effects in vivo, these drugs were administered to full thickness wounds in the skin of rodent tails.

UVB-irradiated back skin = assay: Barrier function after UVB irradiation (Example 12); assay type: in vivo, Hairless mice HOS: HR-1
Description: Hairless mice HOS: HR-1 females (7 weeks old) were acclimatized to the experimental environment and then grouped into the 6 groups below, so that the body weight values were nearly uniform. • No ultraviolet irradiation group (n=2) • Ultraviolet (UVB) irradiation+solvent application group (n=4). • Ultraviolet (UVB) irradiation+200 nM apocynin application group (n=4). • Ultraviolet (UVB) irradiation+200 μM apocynin application group (n=4). • Ultraviolet (UVB) irradiation+2 μM Y-27632 application group (n=4). • Ultraviolet (UVB) irradiation+20 μM Y-27632 application group (n=4) In the above solution application group, aqueous solutions of each preparation were applied to hairless mice on their back once a day for five days, starting from the day before ultraviolet irradiation. UVB irradiation was carried out using a Yayoi ultraviolet irradiation system (Y-UV-Lab-K-D5 lamp type) at an intensity of 150 mJ/cm^2 once a day. The stratum corneum water content and TEWL of the irradiated area were measured for each group of mice on the fourth day after the start of ultraviolet irradiation. The measurements were performed using Corneometer CM825 and Tewameter TN300 (Courage+Khazaka, Integral Corporation, Germany) at specific sites on the back of the mice.

[3] = tested on: SDS-induced skin roughness; assay: Skin roughness induced by 10% SDS in hairless mice (Examples 16, 17); assay type: in vivo, hairless mice (HOS: HR-1)
From the text: Using a skin irritation model induced by a 10% sodium lauryl sulfate (SDS) solution (a test that serves as a standard for chemical-induced skin damage), the present inventors administered a substance that promotes the competitive self-renewal ability of epidermal stem cells (apocynin) and evaluated the effect of the skin roughness-preventing or -ameliorating agent in improving skin roughness. After acclimation of hairless mice (HOS: HR-1) to the experimental environment, the mice were divided into the three groups below, so that the body weight values were nearly uniform. • SDS non-treated group (n=2) • SDS treatment+solvent application group (n=4) • SDS treatment+200 μM apocynin application group (n=4) On the back of hairless mice, a cotton ball soaked in 500 μL of 10% SDS solution (dissolved in 70% ethanol) was applied for 30 min on days 1, 2, 3, and 4. Apocynin was applied to the back every day from the day before the experiment until day 4. For each group of mice on the third day after the start of the experiment, TEWL was measured at specific sites on the back (two sites on the left side and right side symmetrically from the center of the spine) as described above. On the eighth day, the images were taken by PRIMOS-CR (Canfield Scientific, Inc., Integral Corporation), a high-resolution 3D image analysis system. […] Using a skin irritation model induced by 10% sodium lauryl sulfate (SDS) solution, the present inventors administered a substance that promotes the competitive self-renewal ability of epidermal stem cells (ebselen) and evaluated the effect of the skin roughness-preventing or -ameliorating agent in improving skin roughness. […] For each group of mice on the eighth day after the start of the experiment, TEWL was measured at specific sites on the back (two sites on the left side and right side symmetrically from the center of the spine) as described above. […]

[4] = tested on: skin damage induced by erlotinib; assay: Improvement of skin damage caused by erlotinib administration, TEWL (Example 10); assay type: in vivo, C57BL6N mice; details: 200 μM applied on the back once a day, five times a week; 7 weeks old or 6 months old mice; day 7 / day 12 (FIG. 19)
Description: Female […] mice (7 weeks old or 6 months old) were acclimatized to the experimental environment, and then hair was removed from their back under anesthesia. […] The control non-administered group received the 0.5% methylcellulose solution of the solvent in the same way. The control group applied with the solvent and the group applied with 200 μM apocynin received an aqueous solution of each preparation once a day, five times a week on the back. To the control solvent application group the solvent (50% ethanol/PBS) of apocynin was similarly applied.

[5] = eighth day, surface of the back, compared to the solvent-applied control group

SMILES: COc1cc(C(C)=O)ccc1O [Apocynin]
- skin damage [1]: significantly reduced
- wound repair (unrepaired wound area) [2]: significantly accelerated; also recorded: significantly promote the wound repair process
- TEWL after ultraviolet irradiation (UVB-irradiated back skin; 200 µM administration group, UVB, fourth day (FIG. 21)): significantly lower
- water content of the stratum corneum after ultraviolet irradiation (UVB-irradiated back skin; 200 μM applied, UVB 150 mJ/cm^2, fourth day (FIG. 21)): significantly higher
- TEWL on the back ([3]; 200 μM apocynin, third day, compared to the solvent-applied control group (FIG. 28)): significantly lower
- Ra (arithmetic mean roughness) [3, 5]: significantly reduced
- Rz (ten-point average roughness) [3, 5]: significantly reduced
- TEWL under erlotinib administration [4]: significantly decreased
